Measured values: publication PMC5762338, “A novel orally available Syk/Src/Jak2 inhibitor, SKLB-850, showed potent anti-tumor activities in B cell lymphoma (BCL) models” (Oncotarget, 2017)

How the values were obtained:
[1] = system: CD184 expression of Ramos cells; assay: CD184 (CXCR4) surface expression by flow cytometry; format: cell-based, Human
Method: And BCL cells could migrate toward the chemokine CXCL12 upon activation of its receptor CD184 [27].
The expression of surface molecules was analyzed by flow cytometry, using the following monoclonal antibody CD184 (CXCR4), and the relevant isotype controls mAbs (BD biosciences). A total of 10^6 mononuclear cells were incubated for 30 minutes at 4°C with saturating concentrations of mAbs, and the cells were washed twice and analyzed with a flow cytometer (BD FACSCalibur, BD, USA).

SMMC7721 = assay: MTT anti-viability assay; format: cell-based; settings: SMMC-7721, SMMC7721, Human hepatocellular carcinoma cell, 72 hours
Method: (§1) In vitro anti-viability activities of SKLB-850 against various tumor cell lines were measured using the MTT method.
(§2) Human cancer cell lines Ramos-ZHL, HBL-1, SuDHL-6, LY-10, LY-1, RAJI, MDA-MB-231, SW1990, SMMC7721, MCF-7, CFPAC-1, HPAC, A549 and H358 were obtained from American Type Culture Collection (ATCC). All tumor cell lines were maintained according to the ATCC procedures and passaged for less than 6 months after receipt for resuscitation. These cells were cultured in RPMI-1640 supplemented with 10% fetal bovine serum (FBS).
(§3) Cell proliferation was measured using the MTT assay as previously described. Various cells including were treated with indicated concentrations of SKLB-850 for 72 hours. R788 (Selleck.cn) was served as a positive control. Each assay was replicated 3 times.

A549 = assay: MTT anti-viability assay; format: cell-based; settings: A549, Human non-small cell lung cancer cells, 72 hours
Method: as §1, §2, §3

HPAC = assay: MTT anti-viability assay; format: cell-based; settings: Human pancreatic cancer cell, 72 hours
Method: as §1, §2, §3

HBL-1 = assay: MTT anti-viability assay; format: cell-based; settings: HBL1, HBL-1, Human diffuse large B cell lymphoma, 72 hours
Method: as §1, §2, §3

CFPAC-1 = assay: MTT anti-viability assay; format: cell-based; settings: CFPAC-1, Human pancreatic cancer cell, 72 hours
Method: as §1, §2, §3

RAJI = assay: MTT anti-viability assay; format: cell-based; settings: Human B cell lymphoma, 72 hours
Method: as §1, §2, §3

SW1990 = assay: MTT anti-viability assay; format: cell-based; settings: SW1990, Human pancreatic cancer cell, 72 hours
Method: as §1, §2, §3

[2] = system: Syk, Src/FAK, JAK2/STAT3 and NF-κB p65 phosphorylation in Ramos tumor tissues; assay: Immunohistochemistry of phospho-proteins in tumor tissues from the Ramos tumor model; format: in vivo, NOD/SCID mice
Method: (§4) To understand the mechanism of antitumor activities in vivo, pivotal protein activities of Syk/ERK, Src/FAK and JAK2/STAT3 signaling pathways were detected by Western blot analysis. […] Immunohistochemistry assays were performed using tumor tissues isolated from the Ramos tumor model at the end of treatment.
(§5) Paraffin sections from each group were stained with hematoxylineosin (H&E). For immunohistochemistry studies, tumor tissues in the Ramos model were performed and the following antibodies were used: phospho-Src (Cell Signaling Technology, 1:100), phospho-FAK (Cell Signaling Technology, 1:100), phospho-Stat3 (Cell Signaling Technology, 1:100), NF-κB p-65(Cell Signaling Technology, 1:100) and phospho-Syk (Cell Signaling Technology, 1:100). Additionally, Rat anti-mouse CD31 antibody (BD Biosciences, USA) and anti-Ki67 antibody (Gene Tech) were used to determine vessel density and cell proliferation following the manufacturer’s protocol, respectively. A DAKO polymer secondary antibody system (Dako Envision 1K4007) was used for secondary detection. Images were captured using an Olympus digital camera.

[3] = Preliminary toxicity evaluation in treated mice; format: in vivo
Method: A preliminary toxicity evaluation to SKLB-850 was also carried out. […] Besides, toxic pathologic changes in liver, lung, kidney, spleen, and heart were not detected by microscopic examination (Figure 5C).
To investigate potential side effects or toxicity on mice during the treatment, anorexia skin ulceration, weight loss, diarrhea, and toxic death were observed continuously for relevant indexes. The tissues of heart, liver, spleen, lung, and kidney were stained with hematoxylin and eosin (H&E). ALT, AST, BUN and CREA in serum were measured by the National Chengdu Center for Safety Evaluation of Traditional Chinese Medicine using commercially available kits.

[4] = system: Ki67 and CD20 in Ramos tumor tissues; assay: Immunohistochemistry of Ki67 and CD20 in tumor tissues from the Ramos model; format: in vivo, NOD/SCID mice; settings: mouse tumor tissues
Description: The ability of inducing apoptosis of SKLB-850 in tumor tissues was examined by TUNEL. […] We then examined apoptotic tumor cells in B-cell lymphoma samples from BCL patients after SKLB-850 treatment by FCM. As shown in Figure 6C and 6F, SKLB-850 induced cell apoptosis (14.10 ± 4.04%), and R788 had the same effect but relatively weak (7.60 ± 0.52%). To better understand the mechanism of antitumor activities in vivo, Ki67 and CD20 in mouse tumor tissues were detected by immunohischemistry; Ki67 was a marker of proliferation in the diagnosis of tumors and CD20 was highly expressed in B cell lymphomas.
as §5, with “Images were captured using an Olympus digital camera.” left out

[5] = system: Syk/ERK, Src/FAK and JAK2/STAT3 signaling pathways in Ramos cell; assay: Western blot of Syk/ERK, Src/FAK and JAK2/STAT3 signaling; format: cell-based, Human; parameters: Syk, Src, JAK2 phosphorylation (in words): dose or concentration left out as unconfirmed; settings: 24 hours
Method: as §4
Figure 7 Western blot and histochemical analyses of tumor tissues from the Ramos model (A) SKLB-850 inhibited Syk/ERK, Src/FAK and JAK2/STAT3 signaling pathways. The Ramos cells were incubated for 24 hours in medium containing vehicle, SKLB-850, or R788, and then lysed for western blot assay. (B) H&E staining and immunohistochemical staining of NF-κB, p-Src, p-STAT3 and p-Syk in tumor tissues isolated from vehicle, R788 or SKLB-850 treated groups. SKBL-850 inhibited p-JAK2, p-FAK, p-Src, p-ERK and p-Syk expression in RAMOS cells.
For Ramos cell immunoplot studies, cancer cells were incubated with vehicle, R788, or SKLB-850 for 24 hours, and then lysed in RIPA buffer (Beyotime, China) containing Roche protease inhibitor cocktail, and the protein concentrations were determined by the Bradford method. […]

Structure (SMILES): CN1CCN(c2ccc(Nc3ncc(F)c(Nc4ccc(Cl)cc4C(N)=O)n3)cc2)CC1 [SKLB-850, 5-chloro-2-((5-fluoro-2-((4-(4-methylpiperazin-1-yl)phenyl)amino)pyrimidin-4-yl)amino) benzamide]
- expression of CD184 (in words) [1]: decreased the expression of CD184
- IC50 (SMMC7721): 2200 nM
- IC50 (A549): > 20000 nM
- IC50 anti-viability (A549): did not exhibit activity
- IC50 (HPAC): > 20000 nM
- IC50 anti-viability (HPAC): did not exhibit activity
- IC50 (HBL-1): 690 nM
- IC50 (CFPAC-1): 7240 nM
- IC50 (RAJI): 1950 nM
- IC50 (SW1990): 2190 nM
- phosphorylation of NF-κB p65 (in words) ([2]; tumor tissues from the Ramos tumor model): inhibited
- phosphorylations of Syk, Src/FAK and JAK2/STAT3 (in words) ([2]; tumor tissues from the Ramos tumor model at the end of treatment): inhibited
- toxic pathologic changes in liver, lung, kidney, spleen, and heart (H&E, in words) ([3]; microscopic examination): not detected
- mouse body weight (in words) ([3]; treated groups, monitored once every three days): no significant differences in weights
- levels of ALT, AST, BUN, and CREA of serum (in words) ([3]; treated mice): no obvious changes
- CD20 expression (in words) [4]: significant reduction
- Ki67 expression (in words) [4]: significant reduction
- Syk, Src, JAK2 phosphorylation (in words) [5]: effectively inhibited
- phosphorylation levels of ERK, FAK and Stat3 (in words) ([5]; concentrations between 0.01μMl and 1μM/ml): down-regulated
